Assay results as given in patent US6251897A, “6-phenyltetrahydro-1,3-oxazin-2-one derivative and pharmaceutical composition containing the same” (Nikken Chemicals Co., LTD, priority 1996, dated 2001).

Tests used:
[1] = tested on: antigen-induced bronchospasm in guinea pig; assay: Inhibitory effect on antigen-induced bronchospasm (Konzett-Roessler, ovalbumin-sensitized); assay type: in vivo, guinea pig (Hartley male); conditions: Cavia porcellus; intravenous, 10 minutes before antigen (0.2 mg/kg OA i.v.); read-out: Action for suppressing antigen-induced bronchospasms ED50
Experimental: A Hartley male guinea pig was sensitized by intramuscular administration of […] Ovalbumin (OA) on first day and fourth day, and used after 24th day. A trachial canula was introduced in the guinea pig anesthetized with pentobarbital and artificial ventilation was performed 25 to 29 days after the first sensitization. The overflow of the ventilation was measured by the Konzett-Roessler method while 0.2 mg/kg OA were administered intravenously. The test compound was dissolved in polyethylene glycol 400 and intravenously administered 10 minutes before administration of the antigens.

[2] = tested on: rat neutrophils; assay: Inhibition of super oxide anion release from rat neutrophils (A23187-stimulated chemiluminescence); assay type: cell-based, rat (Wister); conditions: Neutrophil, stimulated with 0.3 μM calcium ionophore A23187, read-out: Inhibitory action of super oxide anion release from rat neutrophils IC50
Experimental: The release of super oxide anions was measured so as to study the inhibitory effects of the compound on inflammatory leukocytes, that is, neutrophils.
Blood sample was obtained from Wister rats anesthetized with ether. It was superposed on a blood cell separation solution (Polymorphoprep 1.113, made by Naicomet Co. (phonetic)) and the neutrophils were separated by centrifugation. The neutrophils were resuspended in a Hank's balanced salt solution at a concentration of 0.5×10^4 cell/ml. 0.1 mM of Lusigenin and the test substance dissolved in DMSO were added to 2 ml of the cell-suspension. The chemiluminescence generated by stimulation of 0.3 μM calcium ionophore A23187 was measured by a chemiluminescence reader so as to evaluate the release of super oxide anions.

[3] = tested on: Type IV PDE; assay: PDE inhibitory activity, type IV isozyme (3H-cAMP hydrolysis); assay type: biochemical; conditions: partially purified from rat neutrophils, 30° C., 30 minutes
How it was run: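 Enzyme partially purified from rat neutrophils by ion-exchange chromatography. Reaction in 50 mM Tris-HCl with 5 mM MgCl2, 30 min at 30° C, stopped by boiling; product converted by 5'-nucleotidase and 3H-adenosine counted after ion-exchange separation. IC50 given in M.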

Compound	IC50 [2]	IC50 [3]	ED50 [1]
COc1ccc(C2CCN(C)C(=O)O2)cc1OC1CCCC1 (centres unmarked) [Compound No. 10, 6-(3-Cyclopentyloxy-4-methoxyphenyl)-3-methyl-3,4,5,6-tetrahydro-2H-1,3-oxazin-2-one]	90 nM	1300 nM	0.95 mg/kg
COc1ccc(C2CCN(Cc3ccc(Br)cc3)C(=O)O2)cc1OC1CCCC1 (centres unmarked) [Compound No. 11, 3-(4-bromobenzyl)-6-(3-cyclopentyloxy-4-methoxyphenyl)-3,4,5,6-tetrahydro-2H-1,3-oxazin-2-one]	50 nM	1400 nM	3.1 mg/kg
COc1ccc(C2(C)CCNC(=O)O2)cc1OC (centres unmarked) [Compound No. 5, 6-(3,4-dimethoxyphenyl)-6-methyl-3,4,5,6-tetrahydro-2H-1,3-oxazin-2-one]	2400 nM	6800 nM	0.3 mg/kg

Further molecules by falling IC50 [2], results first:

IC50 [2]	IC50 [3]	Compound	ED50 [1]
8800 nM	10000 nM	COc1ccc(C2CCNC(=O)O2)cc1OC (centres unmarked) [Compound No. 1, 6-(3,4-dimethoxyphenyl)-3,4,5,6-tetrahydro-2H-1,3-oxazin-2-one]	
550 nM	1200 nM	COc1ccc(C2CCNC(=O)O2)cc1OC1CCCC1 (centres unmarked) [Compound No. 2, 6-(3-cyclopentyloxy-4-methoxyphenyl)-3,4,5,6-tetrahydro-2H-1,3-oxazin-2-one]	0.23 mg/kg
